Reference: PubChem BioAssay (NCI)
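Dose response: 5 concentrations. Exposure: 48 h. Format: 96-well plates. Endpoint: linear interpolation; highest concentration if not reached. Here, GI50 denotes the concentration required for 50% inhibition of growth. The concentration for full growth arrest is given as TGI.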

What was measured:
Experiment in all cases: NCI anticancer screen, dose series, 48 h
786-0 renal = tested on: 786-0 renal
HOP-62 NSCLC = tested on: HOP-62 NSCLC
HOP-92 NSCLC = tested on: HOP-92 NSCLC
NCI-H226 lung = tested on: NCI-H226 lung
NCI-H460 lung = tested on: NCI-H460 lung
SK-MEL-5 melanoma = tested on: SK-MEL-5 melanoma
U251 CNS = tested on: U251 CNS
K-562 leukemia = tested on: K-562 leukemia
MDA-MB-231 breast = tested on: MDA-MB-231 breast
NCI/ADR-RES ovarian = tested on: NCI/ADR-RES ovarian

SMILES | TGI (786-0 renal) [µM] | TGI (HOP-62 NSCLC) [µM] | TGI (HOP-92 NSCLC) [µM] | TGI (NCI-H226 lung) [µM] | TGI (NCI-H460 lung) [µM] | TGI (SK-MEL-5 melanoma) [µM] | TGI (U251 CNS) [µM] | TGI (K-562 leukemia) [µM] | GI50 (786-0 renal) [µM] | GI50 (HOP-62 NSCLC) [µM] | GI50 (K-562 leukemia) [µM] | GI50 (MDA-MB-231 breast) [µM] | TGI (MDA-MB-231 breast) [µM] | GI50 (NCI-H226 lung) [µM] | GI50 (NCI-H460 lung) [µM] | GI50 (NCI/ADR-RES ovarian) [µM] | TGI (NCI/ADR-RES ovarian) [µM] | GI50 (SK-MEL-5 melanoma) [µM] | GI50 (U251 CNS) [µM]
CCCCCCCCCCCCC(SCCNC(=O)CCNC(=O)C(O)C(C)(C)COP(=O)(O)OP(=O)(O)OCC1OC(n2cnc3c(N)ncnc32)C(O)C1OP(=O)(O)O)C(=O)NCC(N)=O (centres undefined) | > 100 | > 100 | > 100 | > 100 | > 100 | > 100 | > 100 | – | – | – | – | – | – | – | – | – | – | – | –
O=c1oc2c3ccc4ccccc4c3n(Cc3nc4ccccc4[nH]3)c2c2ccccc12 | > 47.9 | 75.3 | > 100 | > 100 | > 100 | – | > 100 | > 100 | – | – | – | – | – | – | – | – | – | – | –
CCOC(=O)/C=C/c1ccc(C(=O)OCC)[nH]1 | > 100 | > 100 | – | > 100 | 14.5 | 8.01 | > 100 | > 100 | 7.85 | 7.14 | 0.649 | 13.7 | > 100 | 15.4 | 3.08 | 3.3 | > 100 | 2.34 | 3.92
O=C1c2cccc3cc([N+](=O)[O-])cc(c23)C(=O)N1CCCN1CCN(CCCN2C(=O)c3cccc4cc([N+](=O)[O-])cc(c34)C2=O)CC1 | 5.55 | 33.8 | 5.2 | 1.37 | > 100 | 2.37 | 19.3 | > 100 | – | – | – | – | – | – | – | – | – | – | –
COc1ccc2c(C3(O)CCNCC3)c[nH]c2c1 | > 100 | > 100 | > 100 | – | > 100 | > 100 | > 100 | > 100 | – | – | – | – | – | – | – | – | – | – | –
COC(=O)C12C3C4C1C1C2C3C41I (centres undefined) | > 100 | > 100 | > 100 | > 100 | > 100 | > 100 | > 100 | > 100 | – | – | – | – | – | – | – | – | – | – | –
Cc1cc2occ(C)c(=O)c2c2c1OC(C)(C)S2 | > 100 | > 100 | > 100 | > 100 | > 100 | > 100 | > 100 | > 100 | – | – | – | – | – | – | – | – | – | – | –
CCCCCCCCCCCC(=O)C1=C(O)C(O)CCC1=O (centres undefined) | > 100 | 40.4 | 48.3 | 70.3 | 44.4 | – | 55.5 | 43 | – | – | – | – | – | – | – | – | – | – | –
c1ccc(COc2ccc3[nH]c4c(ncc5[nH]c6ccccc6c54)c3c2)cc1 | 18.5 | 30.5 | 29.9 | 30.9 | 37 | 30 | 24.4 | 6.11 | – | – | – | – | – | – | – | – | – | – | –
CCc1cccc(C)c1NC(=O)CC1Sc2ccccc2NC1=O (centres undefined) | > 100 | 61.3 | 99.7 | 64.6 | > 100 | > 100 | > 100 | > 100 | – | – | – | – | – | – | – | – | – | – | –
CCOC(=O)/C=C(/CN1C(=O)c2ccccc2C1=O)c1ccccc1 | > 100 | > 100 | > 100 | > 100 | > 100 | > 100 | > 100 | > 100 | – | – | – | – | – | – | – | – | – | – | –
